Measurements reported in patent publication US20040077715A1, “Use of an isothiocyanate, a thiocyanate or a mixture thereof as depigmenting agent” (priority 2001, published 2004).

Key:
[1] = tested on: fungal tyrosinase (EC. 1.14.18.1); test: Measurement of the power to inhibit tyrosinase (L-Dopa oxidation to dopachrome, O.D. at 475 nm); type: biochemical; details: for Concentration which inhibits the enzymatic activity of tyrosinase by 50%: fungal tyrosinase, L-Dopa substrate, pH 6.5, 30° C.; for Times more active than hydroquinone in inhibiting tyrosinase: relative to hydroquinone
Procedure: The following reaction is used: colourless L-Dopa (L-3,4-dihydroxyphenylalanine, obtained from Sigma (ref. D-9628)) is oxidized to coloured dopachrome, which absorbs at 475 nm. This reaction is catalyzed by fungal tyrosinase (EC. 1.14.18.1, obtained from Sigma (ref. T-7755)). The kinetics of the reaction are recorded by the measurement of the optical density (O.D.) as a function of the time at 30° C.
The compositions of the various solutions used are as follows:
L-Dopa at 0.35% (w/v) in the pH 6.5 buffer solution.
The inhibiting molecules are dissolved directly in the pH 6.5 buffer, in 50% methanol (methanol/distilled water) or in pure methanol, depending upon their solubility.
The concentrations in weight by volume of the various solutions of inhibitors are: 0.2%, 0.1%, 0.05%, 0.025%, 0.0125%, 0.00625% and 0.00312%.
Tyrosinase at 0.010% (w/v) in the pH 6.5 buffer solution.
The amounts of these various solutions used during the tests are presented in Tables 1 and 2 for each reaction studied:
The action of tyrosinase is evaluated by the initial rate of the reaction measured on the O.D. recording.
The initial rates of reactions without inhibitors (concentration 0) and the rates at the various concentrations tested are plotted on a curve.
The inhibiting power of a molecule is defined as the concentration which reduces the action of tyrosinase by 50%.

[2] = tested on: cultured melanocytes; test: Power to inhibit the synthesis of melanin with regard to cultured melanocytes; type: cell-based; details: for Effect on the synthesis of melanin (in words) / Inhibition of the synthesis of melanin: concentration of 0.00035%; for Inhibition of the synthesis of melanin: 8 independent tests
Procedure: These tests were carried out on different batches of cells during experiments which were independent and repeated (8 times).
The results are expressed in mg/ml of melanin in so far as the cells are inoculated at the same concentration.

[3] = tested on: Type-6 pigmented epidermis (reconstituted human skin); test: Power to inhibit the synthesis of melanin with regard to pigmented human skin reconstituted in culture; type: cell-based; details: daily for 5 days, then two further days
Procedure: Type-6 pigmented epidermis (corresponding to black skin), in a proportion of three samples per test, were treated daily for 5 days with a control cream with the following composition (as % by weight): [table] with kojic acid at a concentration of 3.5×10^−5 (w/w) and with sulforaphane at a concentration of 3.5×10^−6 (w/w) in the same cream acting as excipient. At the end of the treatment, the culture skin is left for a further two days and the melanin is extracted from the treated skin and from the control skin with a mixture of solvents and sodium hydroxide (Solvable® from Packard Bioscience B.V.) and the melanin extracted is quantified by colorimetry according to a method described previously (Chemical Characterization of Hair Melanins in Various Coat-Color Mutants of Mice; Hiroyuki Ozeki et al., J. Invest.

[4] = tested on: pigmented skin of guinea pigs; test: Test of the depigmenting power on pigmented guinea pigs; details: glycerol-based cream comprising 5% of product, twice daily
Procedure: Guinea pigs with a pigmented skin, shaved beforehand, received twice daily, 5 days out of 7, during one to two months of treatment, applications of a glycerol-based cream comprising 5% of kojic acid (ref. Aldrich 22,046-9) or 5% of hydroquinone (ref. Aldrich H 1,790-2) or 5% of benzoyl isothiocyanate (ref. Aldrich 30,818-8) or 5% of synthetic sulforaphane prepared according to Example 3. These applications were carried out on circular regions with a diameter of 2 cm pinpointed by indelible marking using yellow ink.

Row | Compound | Concentration which inhibits the enzymatic activity of tyrosinase by 50% [1] | Effect on the synthesis of melanin (in words) [2] | Inhibition of the synthesis of melanin [2] [%] | also measured
1 | S=C=NCc1ccccc1 [Benzyl isothiocyanate] | 0.0980 % (weight/volume) |  |  | 
2 | N#C[S-].[K+] [Potassium thiocyanate] | 0.20 % (weight/volume) |  |  | 
3 | C[S+]([O-])CCCCN=C=S (centres unmarked) [Sulforaphane] | 0.103 % (weight/volume) | inhibit the synthesis of melanin | 26.22 | Times more active than hydroquinone in inhibiting tyrosinase [1]: approximately 1.5 times; Inhibition of the synthesis of melanin (melatonin [sic]) ([3]; 3.5×10^−6 (w/w) in cream): 30%
4 | N#CSCc1ccccc1 [Benzyl thiocyanate] | 0.25 % (weight/volume) |  |  | 
5 | Oc1ccc(O)cc1 [Hydroquinone] | 0.154 % (weight/volume) | inhibit the synthesis of melanin | 42 | Cytotoxicity ([2]; cultured melanocytes): excessively high cytotoxicity
6 | S=C=NC1CCCCC1 [Cyclohexyl isothiocyanate] | 0.104 % (weight/volume) |  |  | 
7 | O=c1cc(CO)occ1O [Kojic acid, kojic acid, reference compound] |  | no longer have an effect | 1 | Inhibition of the synthesis of melanin (melatonin [sic]) ([3]; 3.5×10^−5 (w/w) in cream): 8%; Whitening of the skin ([4]; 5 days out of 7, after treating for 4 weeks): no effect
8 | O=C(N=C=S)c1ccccc1 [Benzoyl isothiocyanate] | 0.0063 % (weight/volume) | no longer have an effect | 9.5 | Times more active than hydroquinone in inhibiting tyrosinase [1]: approximately 24 times; Desquamation of the skin at the application spots ([4]; 5 days out of 7): desquamation of the skin
9 | CC(=O)N=C=S [Acetyl isothiocyanate] | 0.055 % (weight/volume) |  |  | 
